Results as given in patent US20060229321A1, “Rosuvastatin in pre demented states” (priority 2001, published 2006).
Where a name gives a salt, the structure may show the parent alone.

Experiments:
[1] = treatment of hypercholesterolemia; Am J. Med. 2000:108:538-547; cited from earlier work
eNOS = eNOS expression and activity in mice after subcutaneous rosuvastatin; type: in vivo; conditions: mouse, subcutaneous 2 or 20 mg/kg for 14 days
Text: (§1) The studies were generally carried out according to the methods set forth in M. Endres et al., Stroke protection by 3-hydroxy-3-methylglutaryl (HMG)-CoA reductase inhibitors mediated by endothelial nitric oxide synthase, Proc. Natl. Acad. Sci. USA, 95:8880-8885 (1998). In many cases dementia is known to result from the cumulative neurodegenerative effects of strokes. These can be major strokes or sub-clinical strokes, and result in a heterogeneous group of dementias commonly called vascular dementia (VAD). In this study rosuvastatin protected the brain in mice from cerebral ischemia A mechanism by which rosuvastatin may prevent dementia is by protecting the brain from cerebral ischemia.

[2] = test system: cerebral ischemia caused by middle-cerebral artery occlusion (MCAO); assay: Infarct volume after middle-cerebral artery occlusion (MCAO) in mice; type: in vivo; conditions: mouse, subcutaneous 2 or 20 mg/kg for 14 days before MCAO
Text: as §1

cholesterol = conditions: cited from earlier work

In the case of `CC[C@H](C)C(=O)O[C@H]1C[C@@H](C)C=C2C=C[C@H](C)[C@H](CC[C@@H]3C[C@@H](O)CC(=O)O3)[C@H]21` [Lovastatin], the “performance on neuropsychological tests of attention and psychomotor speed” value [1] is listed as “small performance decrements”.
In the case of `CC(C)c1nc(N(C)S(C)(=O)=O)nc(-c2ccc(F)cc2)c1/C=C/[C@@H](O)C[C@@H](O)CC(=O)O` [rosuvastatin, bis[(E)-7-[4-(4-fluorophenyl-6-isopropyl-2-[methyl(methylsulfonyl)amino]pyrimidin-5-yl]-(3R,5S)3,5-dihydroxyhept-6-enoic acid]calcium salt], the “activity of eNOS” value (eNOS) is reported as “increased”, the “expression of eNOS” value (eNOS) is reported as “increased” and the “volume of infarct resulting from subsequent cerebral ischemia (MCAO)” value [2] is reported as “reduced”. For the same molecule, the “reducing cholesterol in patients versus other HMG-CoA reductase inhibitors” value (cholesterol) was “superior”.
